Values of other authors, collected in patent US11452308B2, “Method of selecting a probiotic” (SOCIETE DES PRODUITS NESTLE S.A., priority 2017, dated 2022).

How the values were obtained:
[1] = in vivo
[2] = compared with hydroxytyrosol

Compound | clearance from the plasma [1] | solubility in the lipophilic phases [2]
CC=C1C(O)OC=C(C(=O)OC)C1CC(=O)OCCc1ccc(O)c(O)c1 (centres unmarked) [oleuropein aglycone, 3,4-dihydroxyphenylethanol-elenolic acid] | slower clearance from the plasma | 
hydroxytyrosol acetate |  | more soluble in the lipophilic phases than hydroxytyrosol
